Assay results from patent publication US5935972A, “Benzofuran derivatives as tachykinin antagonists” (Glaxo Group Limited, priority 1997, dated 1999).
Counter-ions that a name gives are not always drawn.

Test system: radiation-induced emesis
Experiment: radiation-induced emesis in the ferret
Type: in vivo
Details: whole body irradiation 2 Grey, dose 0.3 mg/kg s.c. immediately after irradiation
Protocol: In this model of emesis the onset of retching and vomiting occurs approximately 20 minutes after whole body irradiation (2 Grey.ident.200 Rads). The test compound is administered (e.g. i.p, p.o., i.v., s.c) immediately after irradiation and its effect on emesis determined by comparison with appropriate controls.

Structure (SMILES): Cc1nnnn1-c1cc(CN[C@H]2CCCN[C@H]2c2ccccc2)c2occc2c1 [Example 1, [5-(5-Methyl-tetrazol-1-yl)-benzofuran-7-ylmethyl]-(2S-phenyl-piperidin-3S-yl)-amine dihydrochloride]
- inhibition of radiation-induced emesis: inhibited radiation-induced emesis
